Reference: patent US20200385331A1, “ALTERNATIVE KETONE ESTERS AND PRODUCTION PROCESSES THEREOF” (KetoneAid Inc., priority 2018, published 2020)

How the values were obtained:
[1] = exposure to conditions mimicking the pH of the gut (beta hydroxy dehydration at low pH); format: physicochemical; conditions: for dehydration of exposed beta hydroxy groups relative to the salts or free acid of β-hydroxybutyrate: low pH conditions
Description: The present invention generally relates to means of protecting or stabilizing the beta hydroxy group in β-hydroxybutyrate in order to prevent beta hydroxy dehydration in the presence of strong acid, such as found in the stomach. That reaction is a type of gastric degradation which yield compounds with no known metabolic therapy. […] Stabilizing the beta hydroxy group is possible by replacing the carboxylic acid functional group with an ester functional group, which prevents resonance between the two oxygen atoms by hydrogen and considerably stabilizes the beta hydroxy group reducing dehydration by as much as 40% compared to salts and the free acid of β-hydroxybutyrate. Protecting the beta hydroxy group is defined by replacing the beta hydroxy group with a second molecule of β-hydroxybutyrate forming an ester bond at the previous beta hydroxy functional group and yielding a dimer ester (DE) of β-hydroxybutyrate. Further described herein are similar therapeutic agents, compositions, and production processes thereof. […] The Dimer Esters protecting the beta hydroxy group are far less susceptible than any other identified compound to dehydration because only one beta hydroxy group is exposed of the two effective molecules of β-hydroxybutyrate This is disclosed in the prior art providing room for more advantageous compounds and formulations thereof as described herein. A third experiment was carried out exposing the salts and KME to conditions mimicking the pH of the gut.

[2] = healthy resting adults; cited from earlier work

SMILES	dehydration of exposed beta hydroxy groups relative to the salts or free acid of β-hydroxybutyrate [1]	dehydration on exposure to conditions mimicking the pH of the gut ([1]; third experiment, yields undesirable products)	increase of myocardial output [2] [%]
C[C@@H](O)CCOC(=O)C[C@@H](C)O [KME, (3R)-hydroxybutyl (3R)-hydroxybutyrate]	dehydrate to a far lesser extent	Rapid dehydration was observed	
CC(CCO)OC(=O)C[C@@H](C)O (stereo partly shown) [SKE]	dehydrate to a far lesser extent		
CC(O)CC(=O)O (stereo not drawn) [beta hydroxybutyrate]			50
